In assay [1] the test system is 5637. In words: Cytotoxic activity (M) panel, Bladder 5637. As to conditions: read-out: CYTOTOXIC ACTIVITY (M) 5637.
In assay [2] the test system is CHSA. The assay is described as follows: Cytotoxic activity (M) panel, Chondrosarcoma CHSA. As to conditions: read-out: CYTOTOXIC ACTIVITY (M) CHSA.
Assay [3] relates to PANC-1. The assay is described as follows: Cytotoxic activity (M) panel, Pancreas PANC-1. As to conditions: Homo sapiens, PANC-1, read-out: CYTOTOXIC ACTIVITY (M) PANC-1.
For assay [4], the system named is 786-O. The assay is described as follows: Cytotoxic activity (M) panel, Renal 786-O. Conditions: Homo sapiens, 786-0, read-out: CYTOTOXIC ACTIVITY (M) 786-O.
Assay [5] concerns HT-29. In words: Cytotoxic activity (M) panel, Colon HT-29. Conditions: Homo sapiens, HT-29, read-out: CYTOTOXIC ACTIVITY (M) HT-29.
Assay [6] relates to OSA-FH. The assay is described as follows: Cytotoxic activity (M) panel, Osteosarcoma OSA-FH. As to conditions: read-out: CYTOTOXIC ACTIVITY (M) OSA-FH.
The subject of assay [7] is Hs746t. In words: Cytotoxic activity (M) panel, Gastric Hs746t. Conditions: Homo sapiens, read-out: CYTOTOXIC ACTIVITY (M) Hs746t.
Assay [8] has as its system MEL-28. In words: Cytotoxic activity (M) panel, Melanoma Mel-28. As to conditions: Homo sapiens, SK-MEL-28, read-out: CYTOTOXIC ACTIVITY (M) Mel-28.
Assay [9] deals with PC3. The assay is described as follows: Cytotoxic activity (M) panel, Prostate PC3. As to conditions: Homo sapiens, PC-3, read-out: CYTOTOXIC ACTIVITY (M) PC3.
Assay [10] concerns SK-HEP-1. The assay is described as follows: Cytotoxic activity (M) panel, Liver SK-HEP-1. Conditions: Homo sapiens, SK-HEP1, read-out: CYTOTOXIC ACTIVITY (M) SK-HEP-1.
In assay [11] the test system is FADU. In words: Cytotoxic activity (M) panel, Pharnynx FADU. Conditions: Homo sapiens, read-out: CYTOTOXIC ACTIVITY (M) FADU.
The subject of assay [12] is MC116. In words: Cytotoxic activity (M) panel, Lymphoma undifferentiated MC116. Conditions: Homo sapiens, MC116, read-out: CYTOTOXIC ACTIVITY (M) MC116, leukemias & lymphomas, Lymphoma undifferentiated, line MC116.
Assay [13] deals with U-937. In words: Cytotoxic activity (M) panel, Lymphoma Histiocytic U-937. Conditions: Homo sapiens, U-937, read-out: CYTOTOXIC ACTIVITY (M) U-937.
Assay [14] concerns Hut 78. In words: Cytotoxic activity (M) panel, Lymphoma Cutaneus T cell Hut 78. Conditions: Homo sapiens, HuT78, read-out: CYTOTOXIC ACTIVITY (M) Hut 78, leukemias & lymphomas, Lymphoma Cutaneus T cell, line Hut 78.
Assay [15] deals with Molt 3. The assay is described as follows: Cytotoxic activity (M) panel, Acute lymphoblastic Molt 3. As to conditions: Homo sapiens, MOLT-3, read-out: CYTOTOXIC ACTIVITY (M) Molt 3, leukemias & lymphomas, ALL Acute lymphoblastic, line Molt 3.
Assay [16] has as its system H9. The assay is described as follows: cells. Conditions: Homo sapiens, H9, read-out: CYTOTOXIC ACTIVITY (M) H9, leukemias & lymphomas, Lymphoma T-cell, line H9.
The test system of assay [17] is RAMOS. In words: cells. As to conditions: Homo sapiens, read-out: CYTOTOXIC ACTIVITY (M) RAMOS, leukemias & lymphomas, Lymphoma Burkitts B celll, line RAMOS.
Assay [18] concerns HL60. In words: cells. As to conditions: Homo sapiens, HL-60, read-out: CYTOTOXIC ACTIVITY (M) HL60, leukemias & lymphomas, ALL Promyelocytic leukemia, line HL60.
In assay [19] the test system is K562. The assay is described as follows: cells. As to conditions: Homo sapiens, K562, read-out: CYTOTOXIC ACTIVITY (M) K562.
The subject of assay [20] is LNCAP. In words: Cytotoxic activity (M) panel, Prostate LNCAP. Conditions: Homo sapiens, read-out: CYTOTOXIC ACTIVITY (M) LNCAP.
The test system of assay [21] is Y-79. In words: Cytotoxic activity (M) panel, Retinoblastoma Y-79. As to conditions: Homo sapiens, Y79, read-out: CYTOTOXIC ACTIVITY (M) Y-79.
For assay [22], the system named is NCI-H187. The assay is described as follows: Cytotoxic activity (M) panel, SCL NCI-H187. As to conditions: Homo sapiens, NCI-H187, read-out: CYTOTOXIC ACTIVITY (M) NCI-H187.
The test system of assay [23] is SK-OV-3. In words: Cytotoxic activity (M) panel, Ovary SK-OV-3. As to conditions: Homo sapiens, SK-OV-3, read-out: CYTOTOXIC ACTIVITY (M) SK-OV-3.
In assay [24] the test system is MX-1. The assay is described as follows: Cytotoxic activity (M) panel, Breast MX-1. Conditions: Homo sapiens, MX1, read-out: CYTOTOXIC ACTIVITY (M) MX-1.

Regarding `COc1c(C)cc2c(c1O)[C@@H]1C3Cc4c(OC(C)=O)c(C)c5c(c4[C@H](CNC(=O)[C@H](C)NC(=O)CCc4ccccc4)N3[C@@H](O)[C@H](C2)N1C)OCO5` (stereo partly drawn) [drawing 215], the IC50 in [1] was determined as 1.65e-10 M; in assay [2], 1.08e-09 M; in assay [3], 8.93e-10 M; in [4], 7.88e-10 M; in assay [5], 7.43e-10 M; in [6], 8.84e-10 M. Moreover, the IC50 in assay [7] was 9.35e-10 M; in assay [8] it was 1.08e-09 M; in assay [9], 8.13e-10 M; in assay [10], 1.4e-09 M; in assay [11] it was 8.41e-10 M.

As for `COc1c(C)cc2c(c1O)[C@@H]1C3Cc4c(OC(C)=O)c(C)c5c(c4[C@H](CNC(=O)/C=C/c4cccc(C(F)(F)F)c4)N3[C@@H](O)[C@H](C2)N1C)OCO5` (stereo partly drawn) [drawing 218], the IC50 worked out at 2.15e-10 M in assay [12], 1.77e-10 M in assay [13], 5.5e-11 M in [14] and 6.13e-10 M in [15].

Turning to `COc1c(C)cc2c(c1O)[C@@H]1C3Cc4c(OC(C)=O)c(C)c5c(c4[C@H](CNC(=O)[C@H](C)NC(=O)C(F)(F)F)N3[C@@H](O)[C@H](C2)N1C)OCO5` (stereo partly drawn) [drawing 219], the IC50 in assay [12] was found to be 2.65e-10 M; in [13], 5.27e-11 M; in assay [14], 2.57e-10 M; in assay [15], 2.8e-09 M.

Turning to `COc1c(C)cc2c(c1O)[C@@H]1C3Cc4c(OC(C)=O)c(C)c5c(c4[C@H](CNC(=O)/C=C/c4ccccc4)N3[C@@H](O)[C@H](C2)N1C)OCO5` (stereo partly drawn) [drawing 220], the IC50 in [12] is 3.8e-09 M; in [13], 3.28e-11 M; in assay [14], 4.62e-09 M; in assay [15], 5.66e-10 M.

`COc1c(C)cc2c(c1O)[C@@H]1C3Cc4c(OC(C)=O)c(C)c5c(c4[C@H](CNC(=O)[C@H](C)NC(=O)CCc4ccccc4)N3[C@@H](O)[C@H](C2)N1C)OCO5` (stereo partly drawn) [drawing 222]: the IC50 in [13] is 5.15e-10 M; in [14], 9.9e-10 M; in [16] it was 4.48e-09 M; in assay [17] it was 5.26e-11 to 1.1e-10 M; in assay [18] it was 5.92e-09 M; in [19], 1.09e-08 M. For the same compound, in [15], the IC50 is 7.53e-12 M.

For `COc1c(C)cc2c(c1O)[C@@H]1C3Cc4c(OC(C)=O)c(C)c5c(c4[C@H](CNC(=O)[C@H](C)NC(=O)Cc4ccccc4)N3[C@@H](O)[C@H](C2)N1C)OCO5` (stereo partly drawn) [drawing 223], the IC50 is 1.41e-09 M in assay [12]; 1.06e-08 M in [14]; 1.14e-08 M in assay [16]; 8.85e-10 M in assay [17]; 1.23e-10 M in assay [18]; 4.45e-08 M in assay [19]. Besides, the IC50 in assay [15] was found to be 8.85e-10 M.

Consider `COc1c(C)cc2c(c1O)[C@@H]1C3Cc4c(OC(C)=O)c(C)c5c(c4[C@H](CNC(=O)Cc4ccccc4)N3[C@@H](O)[C@H](C2)N1C)OCO5` (stereo partly drawn) [drawing 224], for which the IC50 turned out to be 1.13e-08 M in [12]; 7.46e-09 M in [14]; 7.15e-09 M in [17]; 3.97e-10 M in [18]; 2.54e-09 M in [15].

As for `CCC(=O)NC[C@H]1c2c(c(OC(C)=O)c(C)c3c2OCO3)CC2[C@H]3c4c(cc(C)c(OC)c4O)C[C@@H]([C@H](O)N21)N3C` (stereo partly drawn) [drawing 227], the IC50 was found to be 9.91e-10 M in assay [1]; 1.63e-09 M in assay [2]; 1.37e-09 M in assay [3]; 2.27e-09 M in assay [4]; 4.37e-09 M in assay [6]; 2.38e-08 M in [20]. The IC50 in [7] amounted to 1.36e-09 M; in assay [8] it was 2.85e-09 M; in assay [21], 3.08e-10 M; in assay [22] it was 2.41e-11 M; in assay [23] it was 2.9e-08 M; in [10], 1.17e-09 M. In assay [11], the IC50 was 3.05e-08 M.

As for `CCC(=O)N[C@@H](C)C(=O)NC[C@H]1c2c(c(OC(C)=O)c(C)c3c2OCO3)CC2[C@H]3c4c(cc(C)c(OC)c4O)C[C@@H]([C@H](O)N21)N3C` (stereo partly drawn) [drawing 228], the IC50 in [1] came out at 1.17e-09 M; in assay [2], 2.91e-08 M; in assay [3], 8.61e-09 M; in [4], 1.54e-08 M; in assay [6], 1.15e-08 M; in [20], 1.77e-08 M. In addition, the IC50 was found to be 1.92e-09 M in assay [24]; 8.15e-09 M in assay [7]; 1.42e-08 M in assay [8]; 7.45e-10 M in assay [21]; 9.89e-11 M in assay [22]; 6.21e-09 M in [10]. The IC50 in assay [11] came out at 4.38e-08 M.

Take `CCCC(=O)NC[C@H]1c2c(c(OC(C)=O)c(C)c3c2OCO3)CC2[C@H]3c4c(cc(C)c(OC)c4O)C[C@@H]([C@H](O)N21)N3C` (stereo partly drawn) [drawing 229]: the IC50 is 1.62e-08 M in assay [12], 1.92e-09 M in assay [13], 7.33e-09 M in assay [14] and 1.62e-09 M in [15].

As to `CCCCCC(=O)NC[C@H]1c2c(c(OC(C)=O)c(C)c3c2OCO3)CC2[C@H]3c4c(cc(C)c(OC)c4O)C[C@@H]([C@H](O)N21)N3C` (stereo partly drawn) [drawing 230], the IC50 worked out at 3.81e-09 M in [12]; 1.08e-09 M in assay [13]; 1.97e-09 M in assay [14]; 1.08e-08 M in assay [16]; 1.1e-09 M in [17]; 1.5e-08 M in assay [18]. In addition, the results for the IC50 in [19] and in assay [15] were 6.89e-08 M and 3.87e-09 M, respectively.

`CCC(=O)NC[C@H]1c2c(c(OC(C)=O)c(C)c3c2OCO3)CC2[C@H]3c4c(cc(C)c(OC)c4O)C[C@@H]([C@H](O)N21)N3C` (stereo partly drawn) [drawing 231]: the IC50 in [12] came out at 1.04e-09 M; in assay [16], 1.2e-08 M; in [18] it was 4.93e-10 M; in assay [19], 1.87e-08 M; in assay [15], 9.86e-10 M.

As to `COc1c(C)cc2c(c1O)[C@@H]1C3Cc4c(OC(C)=O)c(C)c5c(c4[C@H](COC(=O)/C=C/c4cccc(C(F)(F)F)c4)N3[C@@H](O)[C@H](C2)N1C)OCO5` (stereo partly drawn) [drawing 237], the IC50 in [12] was found to be 1.69e-08 M; in assay [13], 7.6e-08 M; in assay [14] it was 6.47e-08 M; in assay [16], 1.56e-07 M; in [17], 8.86e-09 M; in assay [19], 1.56e-07 M. Also, the IC50 in assay [15] came out at 1.44e-08 M.

Regarding `CCCC(=O)OC[C@H]1c2c(c(OC(C)=O)c(C)c3c2OCO3)CC2[C@H]3c4c(cc(C)c(OC)c4O)C[C@@H]([C@H](O)N21)N3C` (stereo partly drawn) [drawing 240], the IC50 is 1.51e-08 M in assay [12]; 1.03e-08 M in assay [13]; 2.06e-08 M in [14]; 6.76e-08 M in assay [16]; 9.09e-09 M in assay [17]; 2.11e-08 M in assay [19]. Further, the IC50 in [15] amounted to 4.63e-08 M.

These data come from US8012975B2, “Antitumoral analogs of ET-743” (Pharma Mar, S.A., priority 2000, dated 2011).
